Source: PMC10513218, “Effect of Green and Red Thai Kratom (Mitragyna speciosa) on pancreatic digestive enzymes (alpha-glucosidase and lipase) and acetyl-carboxylase 1 activity: A possible therapeutic target for obesity prevention” (PLOS ONE, 2023)
Where “and” joins values, the source holds several entries; their conditions need not be identical. Equal entries are not always repeated. Where two headings read alike, the source gives them in different places.

Assays:
[1] = target: T1, lipase (Homo sapiens, UniProt P16233); experiment: Inhibition of lipase with pNPP as substrate; format: biochemical
T1 sequence (P16233 17-465): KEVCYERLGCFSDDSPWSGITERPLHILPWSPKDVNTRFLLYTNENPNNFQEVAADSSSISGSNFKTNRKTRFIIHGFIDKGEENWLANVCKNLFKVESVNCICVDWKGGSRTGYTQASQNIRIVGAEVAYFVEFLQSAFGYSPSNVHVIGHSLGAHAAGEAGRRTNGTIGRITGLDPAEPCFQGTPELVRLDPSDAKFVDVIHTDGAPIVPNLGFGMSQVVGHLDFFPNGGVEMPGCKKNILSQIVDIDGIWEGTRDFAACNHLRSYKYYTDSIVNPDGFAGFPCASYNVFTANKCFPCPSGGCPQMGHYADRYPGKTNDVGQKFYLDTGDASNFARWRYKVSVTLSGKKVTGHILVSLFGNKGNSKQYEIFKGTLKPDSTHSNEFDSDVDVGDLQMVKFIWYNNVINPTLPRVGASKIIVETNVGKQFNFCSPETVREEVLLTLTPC
Experimental: Inhibition of lipase was performed using p-nitrophenyl palmitate (pNPP) as a substrate. […] The IC50 was determined by plotting the remaining activity of lipase at each inhibitor concentration and […]. […] After 10 min, the reactions were started by the addition of pNPP at 0.02, 0.03, 0.06, 0.125, 0.25, 3.5 and 5 mM. The mode of inhibition and inhibition constant (Ki) were determined by Lineweaver-Burk plots.

[2] = test system: T2, ACC1; experiment: ACC1 inhibition assay (ACC1 Assay Kit, acetyl-CoA decrease by HPLC); format: biochemical; settings: for Effect on ACC1 activity: 0, 1, 10, 100 μM
T2 construct: purchased BPS Bioscience (USA)
Experimental: An ACC1 inhibition assay was performed using the ACC1 Assay Kit from BPS Bioscience (USA) following the manufacturer’s protocol. […] After a 10-minute pre-incubation period, the reaction was initiated by adding 0.1 ng/mL of ACC1 enzyme. The reactions were allowed to proceed for 40 minutes before being terminated by the addition of 100 μl of chilled acetonitrile. The samples were then centrifuged, and the supernatants were carefully transferred to new tubes for analysis. The rate of reaction was quantified by monitoring the decrease in acetyl-CoA substrate concentration using a C18 HPLC column, employing a mobile phase consisting of a linear gradient of water and methanol.

[3] = HFD-induced rats, versus control group; cited from earlier work
[4] = target: T3, alpha-glucosidase (Saccharomyces cerevisiae, UniProt P53341); experiment: Inhibition of alpha-glucosidase with pNPG as substrate; format: biochemical; settings: for Mode of inhibition of alpha-glucosidase: Lineweaver-Burk plots
Experimental: Inhibition of alpha-glucosidase was performed using p-nitrophenol-α-D-glucopyranoside (pNPG) as a substrate. […] After 10 min, the reactions were started with the addition of pNPG at 0.007, 0.015, 0.03, 0.06, 0.125, 0.25, and 5 mM. The mode of inhibition and inhibition constant (Ki) were determined by Lineweaver-Burk plots.

[5] = target: T3, alpha-glucosidase; set-up: method as in doi:10.1016/j.fshw.2014.11.003; settings: cited from earlier work

T3 sequence (P53341 whole entry): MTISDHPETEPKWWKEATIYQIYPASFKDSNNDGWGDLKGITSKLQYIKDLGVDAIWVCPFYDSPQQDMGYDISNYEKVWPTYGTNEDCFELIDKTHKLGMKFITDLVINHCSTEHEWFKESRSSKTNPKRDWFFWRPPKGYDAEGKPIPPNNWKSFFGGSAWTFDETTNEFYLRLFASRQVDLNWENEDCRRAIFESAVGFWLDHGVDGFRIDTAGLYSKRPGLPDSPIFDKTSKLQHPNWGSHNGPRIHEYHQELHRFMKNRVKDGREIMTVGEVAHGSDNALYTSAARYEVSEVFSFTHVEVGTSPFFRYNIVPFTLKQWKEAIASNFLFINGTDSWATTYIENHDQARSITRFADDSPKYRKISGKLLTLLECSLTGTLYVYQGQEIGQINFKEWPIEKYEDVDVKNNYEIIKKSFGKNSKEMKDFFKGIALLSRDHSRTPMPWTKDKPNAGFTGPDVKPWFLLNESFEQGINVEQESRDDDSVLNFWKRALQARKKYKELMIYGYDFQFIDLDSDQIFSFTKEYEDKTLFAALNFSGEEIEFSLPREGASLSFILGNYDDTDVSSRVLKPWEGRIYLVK

CCCCCCCCCCC[C@@H](C[C@@H]1OC(=O)[C@H]1CCCCCC)OC(=O)[C@H](CC(C)C)NC=O [Orlistat, orlistat, reference compound]
Mode of inhibition of lipase ([1]; Lineweaver-Burk plots): Competitive inhibition

O=c1c(O)c(-c2ccc(O)c(O)c2)oc2cc(O)cc(O)c12 [Quercetin]
Mode of inhibition of lipase ([1]; Lineweaver-Burk plots): Competitive inhibition
Effect on ACC1 activity [2]: decreased ACC1 activity in a dose-dependent manner
Decrease of ACC1 activity ([2]; 100 μM): 60%
Plasma triglyceride [3]: lower than in the control group

CCC1CN2CCc3c([nH]c4cccc(OC)c34)C2CC1/C(=C\OC)C(=O)OC (centres unmarked) [Mitragynine]
Mode of inhibition of alpha-glucosidase [4]: mix-typed inhibition
Alpha-glucosidase IC50 lower than acarbose ([4]; ratio of acarbose IC50 to IC50): 7.3 fold
IC50 [1]: 27.4 ± 2.9 µM
Ki ([1]; Ki lipase, Lineweaver-Burk plots, pNPP): 13.7 µM and 7 µM
Mode of inhibition of lipase ([1]; Lineweaver-Burk plots): Competitive inhibition
Effect on ACC1 activity [2]: not and weak inhibitory effect

C[C@H]1O[C@H](O[C@H]2[C@H](O)[C@@H](O)[C@@H](O[C@H]3[C@H](O)[C@@H](O)C(O)O[C@@H]3CO)O[C@@H]2CO)[C@H](O)[C@@H](O)[C@@H]1N[C@H]1C=C(CO)[C@@H](O)[C@H](O)[C@H]1O (some centres unmarked) [Acarbose, acarbose, reference compound]
Mode of inhibition of alpha-glucosidase [4]: Non-competitive inhibition

C[C@@H]1O[C@@H](OC[C@H]2O[C@@H](Oc3c(-c4ccc(O)c(O)c4)oc4cc(O)cc(O)c4c3=O)[C@H](O)[C@@H](O)[C@@H]2O)[C@H](O)[C@H](O)[C@H]1O [Rutin, rutin]
IC50 ([1]; pure compounds and positive control, pNPP at Km 1.3 mM, unit given, read-out: Half-maximal inhibitory concentration (IC50) Lipase): > 100 µM

COc1ccc2c(c1)[nH]c1c3c(c(C)cc12)O[C@](C)(CCC=C(C)C)C=C3 [O-methyl mahanine]
IC50 [5]: 46.1 µM
